# Key:
# Format in all cases: in vivo
# [1] = system: mice under chronic mild stress; test: Elevated plus maze test, compound given at the same time as stress; conditions: 20, 100 and 500 μg/kg intraperitoneally with stress, 3 week and 1 week groups
# Method: Mice under established chronic mild stress (hereinafter referred to as “stress”) were used for a depression and anxiety disorder-like model animal. Stress was applied as follows. 7-week-old male ddY strain mice fed in one cage for 4 mice were used and first subjected to forced swimming for 15 minutes. Then, the mice were fed in a sloped cage for 2 days, and then rested in a normal cage for 1 day. Then, the mice were fed in a dirt cage moisturized with 200 mL of water for 1 day and then rested in a normal cage for 1 day. Then, the mice were fed in a rotational cage that rotated at 180 rpm for 1 day, and then rested in a normal cage for 1 day. […] For 0 μg/kg administration examples of controls, a phosphoric acid buffer containing 0.1% DMSO (controls were expressed as “PBS” or “0 μg/kg” in the figure shown below) was administered in an amount of 0.25 mL to each of a stressed example and a non-stressed example. […]
# In this test, an anxiety level can be evaluated from the time for being the open arm, and a behavior amount can be evaluated from the number of times of entering the closed arm. From the evaluations, when a mouse has an anxiety symptom (condition), the time for being in the open arm […], and thus, a level of the anxiety symptom (condition) can be evaluated from the length of the time. […]
# MAP kinase = test: Phosphorylated MAP kinase amount in cortex of frontal lobe and hippocampus of stressed mice; conditions: 24 hours after 3 weeks of stress with 20, 100, 500 μg/kg, at least one administration example
# Method: After 24 hours from completion of stress for 3 weeks in the same method as described in Example 2, mice administered with the compound 8 in doses of 0, 20, 100 and 500 μg/kg respectively at the same time as stress and non-stressed mice administered with only a phosphoric acid buffer containing 0.1% DMSO were sacrificed and the cortexes of frontal lobes and hippocampi were excised respectively, and thereto were added RIPA buffers in 19 times of an amount of each wet weight.
# Then, sonication was performed by an ultrasonic grinder until tissues cannot be seen, centrifuged at 12000 rpm for 15 minutes, and the supernatant was recovered to form a tissue protein extraction solution. The protein concentration of the extraction solution was measured using a BCA Protein Assay Kit (TAKARA BIO INC.), each of extraction solutions containing 3 μg for a MAP kinase and 5 μg for a phosphorylated MAP kinase was added with a ⅓ amount of a sample buffer for electrophoresis at 4 times of a concentration, and a 1/10 amount of 2-mercaptoethanol and thermally treated at 95° C. for 5 minutes and subjected to electrophoresis with a 10% SDS polyacrylic amide gel. […]
# [2] = system: mice under chronic mild stress; test: Tail suspension test after completion of stress
# Method: A site of 1 cm from the tip of the tail of a mouse was grasped by a hand, being apart from a floor from 10 cm, and an immobility time in suspension for 6 minutes was measured for 2 hours. Since the immobility time prolongs when the mouse has a depressive symptom (condition), a level of the depressive symptom (condition) can be evaluated from the length of the immobility time. FIGS. 6 and 7 show the results.
# Example 2 is a behavior test in which the compound 8 was administered to a mouse as well as stress was applied and a suppression effect of the compound 8 on depressive and anxiety symptoms of the mouse was examined. On the other hand, the present example is a behavior test in which only stress was applied for 3 weeks without administering the compound 8 and stress was completed and a therapeutic effect of the compound 8 on depressive and anxiety symptoms of a mouse after removing stress was examined. Stress was applied to a mouse in the same manner as in Example 2. […]
smiles,measurement,setting,value
"CCCCCCC/C=C/C(=O)OCC [Compound 8, trans-2-decenoic acid ethyl ester]","time for being in open arm, stressed vs non-stressed example",[1],no significant difference
same,number of times of entering closed arm (behavior amount),[1]; vs control (PBS) and stressed vs non-stressed,no significant difference
same,phosphorylated MAP kinase amount compared to control (0 μg/kg),MAP kinase,significantly increased
same,"immobility time, stressed vs non-stressed example","[2]; 500 μg/kg, 1 week-administration groups after completion of stress",no significant difference
same,"immobility time, stressed vs non-stressed example","[2]; all administration examples, 2 week-administration groups after completion of stress",no significant difference

# Source: patent US8557864B2, “Agent having neurotrophic factor-like activity” (Nagoya Industrial Science Research Institute, priority 2007, dated 2013)
